# According to US9302999B2, “Substituted triazoles as herbicides” (E. I. DU PONT DE NEMOURS AND COMPANY, priority 2012, dated 2016):
# Assays:
# Assay type in all cases: in vivo
# [1] = system: rice (Oryza sativa); test: Test B flooded paddy: rice; conditions: Flood, applied to paddy water at 2-leaf stage, visually evaluated after 13 to 15 days
# In short: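 2-leaf plants; pots flooded 3 cm over soil; compound added to paddy water, depth kept constant. Greenhouse 13–15 d. Visual rating vs controls, 0–100 scale (100 = complete control); dash = no result.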
# [2] = system: windgrass (Apera spica-venti); test: Test C postemergence: windgrass
# Source text: (§1) At the same time, plants selected from these crop and weed species and also barley (winter barley, Hordeum vulgare), canarygrass (Phalaris minor), chickweed (common chickweed, Stellaria media) windgrass (Apera spica-venti) and deadnettle (henbit deadnettle, Lamium amplexicaule) were planted in pots containing Redi-Earth® planting medium (Scotts Company, 14111 Scottslawn Road, Marysville, Ohio 43041) comprising spaghnum peat moss, vermiculite, wetting agent and starter nutrients and treated with postemergence applications of test chemicals formulated in the same manner. Plants ranged in height from 2 to 18 cm (1- to 4-leaf stage) for postemergence treatments.
# (§2) Treated plants and controls were maintained in a greenhouse for 13 to 15 days, after which time all species were compared to controls and visually evaluated. Plant response ratings, summarized in Table C, are based on a scale of 0 to 100 where 0 is no effect and 100 is complete control. A dash (-) response means no test result.
# [3] = system: canarygrass (Phalaris minor); test: Test D pre-/postemergence: canarygrass
# Source text: (§3) Seeds of plant species selected from bluegrass (annual bluegrass, Poa annua), blackgrass (Alopecurus myosuroides), canarygrass (Phalaris minor), chickweed (common chickweed, Stellaria media), galium (catchweed bedstraw, Galium aparine), bromegrass, downy (downy bromegrass, Bromus tectorum), field poppy (Papaver rhoeas), field violet (Viola arvensis), foxtail, green (green foxtail, Setaria viridis), deadnettle (henbit deadnettle, Lamium amplexicaule), ryegrass, Italian (Italian ryegrass, Lolium multiflorum), kochia (Kochia scoparia), lambsquarters (Chenopodium album), oilseed rape (Brassica napus), pigweed (Amaranthus retroflexus), Russian thistle (Salsola iberica), chamomile (scentless chamomile, Matricaria inodora), speedwell (bird's-eye speedwell, Veronica persica), barley, spring (spring barley, Hordeum vulgare), wheat, spring (spring wheat, Triticum aestivum), buckwheat, wild (wild buckwheat, Polygonum convolvulus), mustard, wild (wild mustard, Sinapis arvensis), oat, wild (wild oat, Avena fatua), radish, wild (wild radish, Raphanus raphanistrum), windgrass (Apera spica-venti), barley, winter (winter barley, Hordeum vulgare), and wheat, winter (winter wheat, Triticum aestivum) were planted into a silt loam soil and treated preemergence with test chemicals formulated in a non-phytotoxic solvent mixture which included a surfactant. At the same time, these same crop and weed species were planted in pots containing the planting medium comprising spaghnum peat moss, vermiculite, wetting agent and starter nutrients and treated with postemergence applications of the test chemicals formulated in the same manner. Plants ranged in height from 2 to 18 cm (1- to 4-leaf stage).
# as §2, with “controlled growth environment” for “greenhouse”, “14” for “13”, “21 days” for “15 days,”, “D,” for “C,”
# [4] = system: cocklebur (common cocklebur, Xanthium strumarium); test: Test C pre-/postemergence: cocklebur
# Source text: (§4) Seeds of plant species selected from blackgrass (Alopecurus myosuroides), bromegrass, downy (downy bromegrass, Bromus tectorum), foxtail, green (green foxtail, Setaria viridis), ryegrass, Italian (Italian ryegrass, Lolium multiflorum), winter wheat (Triticum aestivum), wild oat (Avena fatua), galium (catchweed bedstraw, Galium aparine), bermudagrass (Cynodon dactylon), surinam grass (Brachiaria decumbens), cocklebur (common cocklebur, Xanthium strumarium), corn (Zea mays), large crabgrass (Digitaria sanguinalis), woolly cupgrass (Eriochloa villosa), foxtail, giant (giant foxtail, Setaria faberii), goosegrass (Eleusine indica), johnsongrass (Sorghum halepense), kochia (Kochia scoparia), lambsquarters (Chenopodium album), morningglory (Ipomoea coccinea), nightshade (eastern black nightshade, Solanum ptycanthum), nutsedge, yellow (yellow nutsedge, Cyperus esculentus), pigweed (Amaranthus retroflexus), ragweed (common ragweed, Ambrosia elation), soybean (Glycine max), common (oilseed) sunflower (Helianthus annuus), Russian thistle (Salsola kali) and velvetleaf (Abutilon theophrasti) were planted into a blend of loam soil and sand and treated preemergence with test chemicals formulated in a non-phytotoxic solvent mixture which included a surfactant.
# as §1, §2
# [5] = system: bluegrass (annual bluegrass, Poa annua); test: Test D pre-/postemergence: bluegrass
# Source text: as §3
# as §2, with “controlled growth environment” for “greenhouse”, “14” for “13”, “21 days” for “15 days,”, “D,” for “C,”
# [6] = system: wheat, winter (winter wheat, Triticum aestivum); test: Test D pre-/postemergence: wheat, winter
# Source text: as §3
# as §2, with “controlled growth environment” for “greenhouse”, “14” for “13”, “21 days” for “15 days,”, “D,” for “C,”
# [7] = system: nightshade (eastern black nightshade, Solanum ptycanthum); test: Test C pre-/postemergence: nightshade; conditions: Preemergence
# Source text: as §4, §1, §2
# [8] = 31 g ai/ha, scale 0 to 100 (0 no effect, 100 complete control)
# [9] = 62 g ai/ha, scale 0 to 100 (0 no effect, 100 complete control)
# [10] = 125 g ai/ha, scale 0 to 100, 0 no effect, 100 complete control
# [11] = Postemergence, 31 g ai/ha, scale 0 to 100 (0 no effect, 100 complete control)
# [12] = Postemergence, 62 g ai/ha, scale 0 to 100 (0 no effect, 100 complete control)
# [13] = Postemergence, 125 g ai/ha, scale 0 to 100, 0 no effect, 100 complete control
# [14] = Postemergence, 250 g ai/ha, scale 0 to 100 (0 no effect, 100 complete control)
# [15] = Postemergence, 16 g ai/ha, scale 0 to 100
# [16] = Postemergence, 250 g ai/ha, scale 0 to 100
# [17] = Preemergence, 16 g ai/ha, scale 0 to 100 (0 no effect, 100 complete control)
# [18] = Preemergence, 31 g ai/ha, scale 0 to 100 (0 no effect, 100 complete control)
# [19] = Preemergence, 62 g ai/ha, scale 0 to 100
# [20] = Preemergence, 125 g ai/ha, scale 0 to 100
# [21] = Preemergence, 250 g ai/ha, scale 0 to 100
structure (smiles),measurement,setting,value
CCOc1nn(-c2ccc(Br)cc2)nc1Cc1ccnc(C(F)(F)F)c1 [Compound 189],"Plant response rating, Rice (0 to 100 scale, 0 is no effect, 100 is complete control)",[1]; 125 g ai/ha,35
CCc1nn(-c2ccc(F)cc2)nc1Oc1ccnc(C(F)(F)F)c1 [Compound 166],"Plant response rating, Rice (0 to 100 scale, 0 is no effect, 100 is complete control)",[1]; 125 g ai/ha,80
Cc1nn(-c2ccc(C(F)(F)F)c(F)c2)nc1Cc1ccnc(C(F)(F)F)c1 [Compound 162],"Plant response rating, Rice (0 to 100 scale, 0 is no effect, 100 is complete control)",[1]; 125 g ai/ha,25
Cc1nn(-c2ccnc(C(F)(F)F)c2)nc1Cc1ccnc(C(F)(F)F)c1 [Compound 137],"Plant response rating, Windgrass",[2]; [8],40
same,"Plant response rating, Windgrass",[2]; [9],50
same,"Plant response rating, Windgrass",[2]; [10],70
same,"Plant response rating, Windgrass","[2]; 250 g ai/ha, scale 0 to 100",90
same,"Plant response rating, Rice (0 to 100 scale, 0 is no effect, 100 is complete control)",[1]; 250 g ai/ha,40
same,Plant response rating: Canarygrass,[3]; [11],20
same,Plant response rating: Canarygrass,[3]; [12],30
same,Plant response rating: Canarygrass,[3]; [13],50
same,Plant response rating: Canarygrass,[3]; [14],75
same,"Plant response rating, Canarygrass",[3]; [15],10
same,"Plant response rating, Cocklebur",[4]; [11],45
same,"Plant response rating, Cocklebur",[4]; [12],50
same,"Plant response rating, Cocklebur",[4]; [16],60
same,Plant response rating: Bluegrass,[5]; [11],20
same,Plant response rating: Bluegrass,[5]; [12],40
same,Plant response rating: Bluegrass,[5]; [13],80
same,Plant response rating: Bluegrass,[5]; [14],90
same,"Plant response rating, Bluegrass",[5]; [15],5
same,"Plant response rating: Wheat, Winter",[6]; [11],5
same,"Plant response rating: Wheat, Winter",[6]; [12],10
same,"Plant response rating: Wheat, Winter",[6]; [13],15
same,"Plant response rating: Wheat, Winter",[6]; [14],20
same,"Plant response rating, Wheat, Winter",[6]; [15],5
CCCc1nn(-c2ccc(F)cc2)nc1Cc1ccnc(C(F)(F)F)c1 [Compound 153],"Plant response rating, Rice (0 to 100 scale, 0 is no effect, 100 is complete control)",[1]; 250 g ai/ha,60
Cc1nn(-c2ccc(C(F)(F)F)cc2)nc1Cc1cccc(C(F)(F)F)c1 [Compound 124],"Plant response rating, Windgrass","[2]; 16 g ai/ha, scale 0 to 100, 0 no effect, 100 complete control",50
same,"Plant response rating, Windgrass",[2]; [8],80
same,"Plant response rating, Windgrass",[2]; [9],95
same,"Plant response rating, Windgrass",[2]; [10],98
same,"Plant response rating, Cocklebur","[4]; Postemergence, 16 g ai/ha, scale 0 to 100, 0 no effect, 100 complete control",10
same,"Plant response rating, Cocklebur",[4]; [11],15
same,"Plant response rating, Cocklebur",[4]; [12],20
same,"Plant response rating, Cocklebur",[4]; [13],55
"Cc1nn(-c2ccc(F)cc2)nc1Oc1ccnc(C(F)(F)F)c1 [Compound 129, 4-[[2-(4-fluorophenyl)-5-methyl-2H-1,2,3-triazol-4-yl]oxy]-2-(trifluoromethyl)pyridine]","Plant response rating, Windgrass",[2]; [8],60
same,"Plant response rating, Windgrass",[2]; [9],80
same,"Plant response rating, Windgrass",[2]; [10],85
same,"Plant response rating, Windgrass","[2]; 250 g ai/ha, scale 0 to 100",100
same,"Plant response rating, Nightshade","[7]; 31 g ai/ha, scale of 0 to 100, 0 is no effect, 100 is complete control",85
same,"Plant response rating, Nightshade","[7]; 62 g ai/ha, scale of 0 to 100, 0 is no effect, 100 is complete control",90
same,"Plant response rating, Nightshade",[7]; [10],90
same,"Plant response rating, Nightshade","[7]; 250 g ai/ha, scale 0 to 100, 0 no effect, 100 complete control",95
same,Plant response rating: Canarygrass,[3]; [11],10
same,Plant response rating: Canarygrass,[3]; [12],15
same,Plant response rating: Canarygrass,[3]; [13],70
same,Plant response rating: Canarygrass,[3]; [14],80
same,"Plant response rating, Canarygrass",[3]; [15],10
same,"Plant response rating, Canarygrass",[3]; [17],0
same,"Plant response rating, Canarygrass",[3]; [18],15
same,"Plant response rating, Canarygrass",[3]; [19],100
same,"Plant response rating, Canarygrass",[3]; [20],100
same,"Plant response rating, Canarygrass",[3]; [21],100
same,"Plant response rating, Cocklebur",[4]; [11],5
same,"Plant response rating, Cocklebur",[4]; [12],10
same,"Plant response rating, Cocklebur",[4]; [13],15
same,"Plant response rating, Cocklebur",[4]; [16],25
same,"Plant response rating, Cocklebur","[4]; Preemergence, 31 g ai/ha, scale of 0 to 100, 0 is no effect, 100 is complete control",0
same,"Plant response rating, Cocklebur","[4]; Preemergence, 62 g ai/ha, scale 0 to 100, 0 no effect, 100 complete control",0
same,"Plant response rating, Cocklebur","[4]; Preemergence, 125 g ai/ha, scale 0 to 100, 0 no effect, 100 complete control",0
same,"Plant response rating, Cocklebur","[4]; Preemergence, 250 g ai/ha, scale 0 to 100, 0 no effect, 100 complete control",0
same,Plant response rating: Bluegrass,[5]; [11],10
same,Plant response rating: Bluegrass,[5]; [12],20
same,Plant response rating: Bluegrass,[5]; [13],60
same,Plant response rating: Bluegrass,[5]; [14],70
same,"Plant response rating, Bluegrass",[5]; [15],10
same,"Plant response rating, Bluegrass",[5]; [17],0
same,"Plant response rating, Bluegrass",[5]; [18],0
same,"Plant response rating, Bluegrass",[5]; [19],85
same,"Plant response rating, Bluegrass",[5]; [20],100
same,"Plant response rating, Bluegrass",[5]; [21],100
same,"Plant response rating: Wheat, Winter",[6]; [11],5
same,"Plant response rating: Wheat, Winter",[6]; [12],10
same,"Plant response rating: Wheat, Winter",[6]; [13],20
same,"Plant response rating: Wheat, Winter",[6]; [14],20
same,"Plant response rating, Wheat, Winter",[6]; [15],5
same,"Plant response rating, Wheat, Winter",[6]; [17],0
same,"Plant response rating, Wheat, Winter",[6]; [18],0
same,"Plant response rating, Wheat, Winter",[6]; [19],0
same,"Plant response rating, Wheat, Winter",[6]; [20],5
same,"Plant response rating, Wheat, Winter",[6]; [21],10
CCCc1nn(-c2ccc(C(F)(F)F)c(F)c2)nc1Oc1ccnc(C(F)(F)F)c1 [Compound 185],"Plant response rating, Rice (0 to 100 scale, 0 is no effect, 100 is complete control)",[1]; 250 g ai/ha,65
